# Earlier results, collected in article PMC7587962, “Evaluation of Cytotoxicity and α-Glucosidase Inhibitory Activity of Amide and Polyamino-Derivatives of Lupane Triterpenoids” (Molecules, 2020).
# What was measured:
# CCRF-CEM = test system: CCRF-CEM; set-up: method as in PMID 25405285; conditions: standard drugs used by NCI as control; cited from earlier work
# K-562 = test system: K-562; set-up: method as in PMID 25405285; conditions: standard drugs used by NCI as control; cited from earlier work
# MOLT-4 = test system: MOLT-4; set-up: method as in PMID 25405285; conditions: standard drugs used by NCI as control; cited from earlier work
# RPMI-8226 = test system: RPMI-8226; set-up: method as in PMID 25405285; conditions: standard drugs used by NCI as control; cited from earlier work
# A549/ATCC = test system: A549/ATCC; set-up: method as in PMID 25405285; conditions: standard drugs used by NCI as control; cited from earlier work
# HOP-62 = test system: HOP-62; set-up: method as in PMID 25405285; conditions: standard drugs used by NCI as control; cited from earlier work
# HOP-92 = test system: HOP-92; set-up: method as in PMID 25405285; conditions: standard drugs used by NCI as control; cited from earlier work
# NCI-H226 = test system: NCI-H226; set-up: method as in PMID 25405285; conditions: standard drugs used by NCI as control; cited from earlier work
# NCI-H23 = test system: NCI-H23; set-up: method as in PMID 25405285; conditions: standard drugs used by NCI as control; cited from earlier work
# NCI-H460 = test system: NCI-H460; set-up: method as in PMID 25405285; conditions: standard drugs used by NCI as control; cited from earlier work
# NCI-H522 = test system: NCI-H522; set-up: method as in PMID 25405285; conditions: standard drugs used by NCI as control; cited from earlier work
# COLO 205 = test system: COLO 205; set-up: method as in PMID 25405285; conditions: standard drugs used by NCI as control; cited from earlier work
# HCC-2998 = test system: HCC-2998; set-up: method as in PMID 25405285; conditions: standard drugs used by NCI as control; cited from earlier work
# HCT-116 = test system: HCT-116; set-up: method as in PMID 25405285; conditions: standard drugs used by NCI as control; cited from earlier work
# HCT-15 = test system: HCT-15; set-up: method as in PMID 25405285; conditions: standard drugs used by NCI as control; cited from earlier work
# HT29 = test system: HT29; set-up: method as in PMID 25405285; conditions: standard drugs used by NCI as control; cited from earlier work
# KM12 = test system: KM12; set-up: method as in PMID 25405285; conditions: standard drugs used by NCI as control; cited from earlier work
# SW-620 = test system: SW-620; set-up: method as in PMID 25405285; conditions: standard drugs used by NCI as control; cited from earlier work
# SF-268 = test system: SF-268; set-up: method as in PMID 25405285; conditions: standard drugs used by NCI as control; cited from earlier work
# SF-539 = test system: SF-539; set-up: method as in PMID 25405285; conditions: standard drugs used by NCI as control; cited from earlier work
# SNB-19 = test system: SNB-19; set-up: method as in PMID 25405285; conditions: standard drugs used by NCI as control; cited from earlier work
# SNB-75 = test system: SNB-75; set-up: method as in PMID 25405285; conditions: standard drugs used by NCI as control; cited from earlier work
# U251 = test system: U251; set-up: method as in PMID 25405285; conditions: standard drugs used by NCI as control; cited from earlier work
# LOX IMVI = test system: LOX IMVI; set-up: method as in PMID 25405285; conditions: standard drugs used by NCI as control; cited from earlier work
# MALME-3M = test system: MALME-3M; set-up: method as in PMID 25405285; conditions: standard drugs used by NCI as control; cited from earlier work
# M14 = test system: M14; set-up: method as in PMID 25405285; conditions: standard drugs used by NCI as control; cited from earlier work
# MDA-MB-435 = test system: MDA-MB-435; set-up: method as in PMID 25405285; conditions: standard drugs used by NCI as control; cited from earlier work
# SK-MEL-2 = test system: SK-MEL-2; set-up: method as in PMID 25405285; conditions: standard drugs used by NCI as control; cited from earlier work
# SK-MEL-28 = test system: SK-MEL-28; set-up: method as in PMID 25405285; conditions: standard drugs used by NCI as control; cited from earlier work
# SK-MEL-5 = test system: SK-MEL-5; set-up: method as in PMID 25405285; conditions: standard drugs used by NCI as control; cited from earlier work
# UACC-257 = test system: UACC-257; set-up: method as in PMID 25405285; conditions: standard drugs used by NCI as control; cited from earlier work
# UACC-62 = test system: UACC-62; set-up: method as in PMID 25405285; conditions: standard drugs used by NCI as control; cited from earlier work
# IGROV1 = test system: IGROV1; set-up: method as in PMID 25405285; conditions: standard drugs used by NCI as control; cited from earlier work
# OVCAR-3 = test system: OVCAR-3; set-up: method as in PMID 25405285; conditions: standard drugs used by NCI as control; cited from earlier work
# OVCAR-4 = test system: OVCAR-4; set-up: method as in PMID 25405285; conditions: standard drugs used by NCI as control; cited from earlier work
# OVCAR-5 = test system: OVCAR-5; set-up: method as in PMID 25405285; conditions: standard drugs used by NCI as control; cited from earlier work
# OVCAR-8 = test system: OVCAR-8; set-up: method as in PMID 25405285; conditions: standard drugs used by NCI as control; cited from earlier work
# NCI/ADR-RES = test system: NCI/ADR-RES; set-up: method as in PMID 25405285; conditions: standard drugs used by NCI as control; cited from earlier work
# SK-OV-3 = test system: SK-OV-3; set-up: method as in PMID 25405285; conditions: standard drugs used by NCI as control; cited from earlier work
# 786-0 = test system: 786-0; set-up: method as in PMID 25405285; conditions: standard drugs used by NCI as control; cited from earlier work
# A498 = test system: A498; set-up: method as in PMID 25405285; conditions: standard drugs used by NCI as control; cited from earlier work
# ACHN = test system: ACHN; set-up: method as in PMID 25405285; conditions: standard drugs used by NCI as control; cited from earlier work
# CAKI-1 = test system: CAKI-1; set-up: method as in PMID 25405285; conditions: standard drugs used by NCI as control; cited from earlier work
# RXF 393 = test system: RXF 393; set-up: method as in PMID 25405285; conditions: standard drugs used by NCI as control; cited from earlier work
# SN12C = test system: SN12C; set-up: method as in PMID 25405285; conditions: standard drugs used by NCI as control; cited from earlier work
# TK-10 = test system: TK-10; set-up: method as in PMID 25405285; conditions: standard drugs used by NCI as control; cited from earlier work
# UO-31 = test system: UO-31; set-up: method as in PMID 25405285; conditions: standard drugs used by NCI as control; cited from earlier work
# PC-3 = test system: PC-3; set-up: method as in PMID 25405285; conditions: standard drugs used by NCI as control; cited from earlier work
# DU-145 = test system: DU-145; set-up: method as in PMID 25405285; conditions: standard drugs used by NCI as control; cited from earlier work
# MCF7 = test system: MCF7; set-up: method as in PMID 25405285; conditions: standard drugs used by NCI as control; cited from earlier work
# MDA-MB-231/ATCC = test system: MDA-MB-231/ATCC; set-up: method as in PMID 25405285; conditions: MDA-MB-31/ATCC; standard drugs used by NCI as control; cited from earlier work
# HS 578T = test system: HS 578T; set-up: method as in PMID 25405285; conditions: standard drugs used by NCI as control; cited from earlier work
# BT-549 = test system: BT-549; set-up: method as in PMID 25405285; conditions: standard drugs used by NCI as control; cited from earlier work
# T-47D = test system: T-47D; set-up: method as in PMID 25405285; conditions: standard drugs used by NCI as control; cited from earlier work
# HL-60(TB) = conditions: standard drugs used by NCI as control; cited from earlier work
smiles,measurement,setting,value
"O=c1[nH]cc(F)c(=O)[nH]1 [Compound 5-FU, 5-fluorouracil]",GI50,CCRF-CEM,9970 nM
same,GI50,K-562,3580 nM
same,GI50,MOLT-4,350 nM
same,GI50,RPMI-8226,40 nM
same,GI50,A549/ATCC,180 nM
same,GI50,HOP-62,390 nM
same,GI50,HOP-92,77900 nM
same,GI50,NCI-H226,54700 nM
same,GI50,NCI-H23,330 nM
same,GI50,NCI-H460,50 nM
same,GI50,NCI-H522,7270 nM
same,GI50,COLO 205,150 nM
same,GI50,HCC-2998,50 nM
same,GI50,HCT-116,220 nM
same,GI50,HCT-15,110 nM
same,GI50,HT29,170 nM
same,GI50,KM12,210 nM
same,GI50,SW-620,920 nM
same,GI50,SF-268,1620 nM
same,GI50,SF-539,60 nM
same,GI50,SNB-19,3810 nM
same,GI50,SNB-75,78700 nM
same,GI50,U251,920 nM
same,GI50,LOX IMVI,240 nM
same,GI50,MALME-3M,50 nM
same,GI50,M14,980 nM
same,GI50,MDA-MB-435,70 nM
same,GI50,SK-MEL-2,56700 nM
same,GI50,SK-MEL-28,1030 nM
same,GI50,SK-MEL-5,460 nM
same,GI50,UACC-257,3550 nM
same,GI50,UACC-62,520 nM
same,GI50,IGROV1,1220 nM
same,GI50,OVCAR-3,10 nM
same,GI50,OVCAR-4,4430 nM
same,GI50,OVCAR-5,10900 nM
same,GI50,OVCAR-8,1740 nM
same,GI50,NCI/ADR-RES,310 nM
same,GI50,SK-OV-3,21800 nM
same,GI50,786-0,720 nM
same,GI50,A498,350 nM
same,GI50,ACHN,270 nM
same,GI50,CAKI-1,70 nM
same,GI50,RXF 393,2610 nM
same,GI50,SN12C,490 nM
same,GI50,TK-10,1120 nM
same,GI50,UO-31,1420 nM
same,GI50,PC-3,2360 nM
same,GI50,DU-145,360 nM
same,GI50,MCF7,70 nM
same,GI50,MDA-MB-231/ATCC,6600 nM
same,GI50,HS 578T,9770 nM
same,GI50,BT-549,10600 nM
same,GI50,T-47D,8120 nM
same,GI50,HL-60(TB),2300 nM
